Test results as given in publication PMC12193096 (International Journal of Molecular Sciences, 2025).

How the values were obtained:
FGR = target: T1, FGR (Homo sapiens, UniProt P09769); experiment: live-cell confocal co-localization (HaloTag recruitment to endosome/F-actin) in HeLa cells; type: cell-based
T1 construct: EGFP-fusion of wild-type FGR

ABL1 = target: T2, ABL1 (Homo sapiens, UniProt P00519); experiment: Kinase-Glo Plus luminescence kinase assay; also live-cell co-localization competed by excess dasatinib; type: biochemical
T2 construct: recombinant active kinase ABL1

SRC = target: T3, SRC (Homo sapiens, UniProt P12931); experiment: Western blot of pY416 autophosphorylation of EGFP-SRC in HeLa cells; live-cell co-localization imaging; type: cell-based
T3 construct: full-length SRC (EGFP-SRC)

HCK = target: T4, HCK (Homo sapiens, UniProt P08631); experiment: live-cell confocal co-localization (HaloTag recruitment to endosome/F-actin) in HeLa cells; type: cell-based
T4 construct: EGFP-fusion of wild-type HCK

LYN = target: T5, LYN (Homo sapiens, UniProt P07948); experiment: as above; type: cell-based
T5 construct: EGFP-fusion of wild-type LYN

YES1 = target: T6, YES1 (Homo sapiens, UniProt P07947); experiment: as above; type: cell-based
T6 construct: EGFP-fusion of wild-type YES1

BTK = target: T7, BTK (Homo sapiens, UniProt Q06187); experiment: as above; type: cell-based
T7 construct: EGFP-fusion of wild-type BTK

CSK = target: T8, CSK (Homo sapiens, UniProt P41240); experiment: as above; type: cell-based
T8 construct: EGFP-fusion of wild-type CSK
Source text: live-cell confocal co-localization (HaloTag recruitment to endosome/F-actin) in HeLa cells on CSK | […]

T5 sequence (P07948 2-491 isoform P07948-2): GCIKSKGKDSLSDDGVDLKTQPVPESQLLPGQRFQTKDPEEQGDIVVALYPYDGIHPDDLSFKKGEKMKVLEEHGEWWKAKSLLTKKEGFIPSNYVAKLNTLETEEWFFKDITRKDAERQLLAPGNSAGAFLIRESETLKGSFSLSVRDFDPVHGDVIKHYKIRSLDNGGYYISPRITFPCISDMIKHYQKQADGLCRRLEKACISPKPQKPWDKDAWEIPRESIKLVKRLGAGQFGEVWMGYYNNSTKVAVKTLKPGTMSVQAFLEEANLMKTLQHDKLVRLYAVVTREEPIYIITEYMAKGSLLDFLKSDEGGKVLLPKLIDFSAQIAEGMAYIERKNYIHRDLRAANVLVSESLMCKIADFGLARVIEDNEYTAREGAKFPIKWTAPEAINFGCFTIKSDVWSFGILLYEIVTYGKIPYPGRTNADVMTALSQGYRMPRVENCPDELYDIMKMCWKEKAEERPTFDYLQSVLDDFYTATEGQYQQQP
T2 sequence (P00519 whole entry): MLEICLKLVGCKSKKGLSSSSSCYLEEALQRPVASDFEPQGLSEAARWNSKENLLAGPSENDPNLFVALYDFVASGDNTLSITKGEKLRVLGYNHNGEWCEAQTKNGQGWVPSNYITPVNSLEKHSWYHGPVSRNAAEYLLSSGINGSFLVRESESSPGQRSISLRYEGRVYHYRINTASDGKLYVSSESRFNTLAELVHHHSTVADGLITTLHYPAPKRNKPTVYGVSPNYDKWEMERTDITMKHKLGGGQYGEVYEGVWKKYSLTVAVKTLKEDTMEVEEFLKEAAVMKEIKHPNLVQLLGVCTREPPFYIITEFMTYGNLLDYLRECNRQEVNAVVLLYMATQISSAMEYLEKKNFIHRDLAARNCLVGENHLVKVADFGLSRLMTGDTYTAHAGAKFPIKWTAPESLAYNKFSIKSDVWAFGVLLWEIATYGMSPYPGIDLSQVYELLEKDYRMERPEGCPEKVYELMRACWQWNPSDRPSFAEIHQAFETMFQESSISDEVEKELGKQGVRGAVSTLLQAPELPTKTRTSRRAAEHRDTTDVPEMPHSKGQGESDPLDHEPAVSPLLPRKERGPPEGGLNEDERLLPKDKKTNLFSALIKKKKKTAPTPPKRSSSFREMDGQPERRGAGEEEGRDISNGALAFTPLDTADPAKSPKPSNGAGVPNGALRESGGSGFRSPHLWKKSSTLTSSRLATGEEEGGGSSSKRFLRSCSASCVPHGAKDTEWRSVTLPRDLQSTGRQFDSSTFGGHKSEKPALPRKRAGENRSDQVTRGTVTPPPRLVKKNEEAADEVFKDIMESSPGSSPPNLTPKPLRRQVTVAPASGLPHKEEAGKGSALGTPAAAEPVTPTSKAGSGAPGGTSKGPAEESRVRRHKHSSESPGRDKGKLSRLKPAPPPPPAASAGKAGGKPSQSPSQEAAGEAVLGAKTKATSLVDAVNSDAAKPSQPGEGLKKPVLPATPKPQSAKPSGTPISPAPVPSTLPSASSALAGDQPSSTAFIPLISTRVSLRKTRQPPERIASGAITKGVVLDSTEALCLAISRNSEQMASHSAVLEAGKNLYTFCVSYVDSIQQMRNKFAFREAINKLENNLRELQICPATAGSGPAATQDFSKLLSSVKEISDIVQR
T4 sequence (P08631 2-526): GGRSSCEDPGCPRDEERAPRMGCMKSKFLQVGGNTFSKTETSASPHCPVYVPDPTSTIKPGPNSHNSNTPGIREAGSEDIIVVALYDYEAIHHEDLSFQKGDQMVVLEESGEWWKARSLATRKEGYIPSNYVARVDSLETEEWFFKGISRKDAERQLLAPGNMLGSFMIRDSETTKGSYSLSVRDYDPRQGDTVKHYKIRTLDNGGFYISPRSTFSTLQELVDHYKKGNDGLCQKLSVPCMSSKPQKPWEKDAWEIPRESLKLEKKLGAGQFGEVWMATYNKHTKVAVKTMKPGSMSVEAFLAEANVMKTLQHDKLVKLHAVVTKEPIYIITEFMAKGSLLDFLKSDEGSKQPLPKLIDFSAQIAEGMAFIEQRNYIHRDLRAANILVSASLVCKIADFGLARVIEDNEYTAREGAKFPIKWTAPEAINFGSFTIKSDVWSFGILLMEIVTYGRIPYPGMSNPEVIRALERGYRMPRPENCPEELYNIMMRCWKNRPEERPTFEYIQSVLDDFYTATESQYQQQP
T1 sequence (P09769 2-529): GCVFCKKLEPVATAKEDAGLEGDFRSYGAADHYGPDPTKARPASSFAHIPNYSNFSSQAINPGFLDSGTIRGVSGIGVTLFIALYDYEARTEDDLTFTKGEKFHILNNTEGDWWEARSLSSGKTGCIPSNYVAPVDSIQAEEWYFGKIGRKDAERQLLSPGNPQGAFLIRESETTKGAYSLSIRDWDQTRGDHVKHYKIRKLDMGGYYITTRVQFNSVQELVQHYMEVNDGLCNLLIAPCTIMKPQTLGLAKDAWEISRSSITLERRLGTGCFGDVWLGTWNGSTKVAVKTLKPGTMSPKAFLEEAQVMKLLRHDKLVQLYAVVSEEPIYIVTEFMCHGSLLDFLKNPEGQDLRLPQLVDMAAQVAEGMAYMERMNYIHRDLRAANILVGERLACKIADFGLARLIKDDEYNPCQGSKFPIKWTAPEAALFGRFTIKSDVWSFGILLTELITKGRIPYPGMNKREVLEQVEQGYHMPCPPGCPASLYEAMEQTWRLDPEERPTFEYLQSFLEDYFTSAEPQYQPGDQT
T7 sequence (Q06187 whole entry, the tested form may be a part): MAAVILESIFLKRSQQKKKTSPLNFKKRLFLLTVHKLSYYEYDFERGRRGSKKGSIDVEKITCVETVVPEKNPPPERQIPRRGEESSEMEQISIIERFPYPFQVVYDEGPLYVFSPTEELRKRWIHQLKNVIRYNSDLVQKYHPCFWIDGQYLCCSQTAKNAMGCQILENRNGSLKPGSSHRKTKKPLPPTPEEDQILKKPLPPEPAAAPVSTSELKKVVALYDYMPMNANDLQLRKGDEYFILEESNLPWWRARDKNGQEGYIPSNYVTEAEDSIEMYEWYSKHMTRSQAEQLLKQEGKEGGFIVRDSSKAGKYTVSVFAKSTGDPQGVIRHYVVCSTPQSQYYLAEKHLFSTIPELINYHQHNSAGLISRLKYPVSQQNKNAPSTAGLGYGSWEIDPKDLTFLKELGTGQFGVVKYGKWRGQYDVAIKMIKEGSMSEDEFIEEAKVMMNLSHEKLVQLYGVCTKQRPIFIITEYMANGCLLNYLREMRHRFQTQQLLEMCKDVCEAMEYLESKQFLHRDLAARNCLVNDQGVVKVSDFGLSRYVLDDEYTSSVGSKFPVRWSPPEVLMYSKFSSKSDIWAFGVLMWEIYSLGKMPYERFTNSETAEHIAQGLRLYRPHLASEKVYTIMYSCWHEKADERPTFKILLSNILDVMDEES
T6 sequence (P07947 2-543): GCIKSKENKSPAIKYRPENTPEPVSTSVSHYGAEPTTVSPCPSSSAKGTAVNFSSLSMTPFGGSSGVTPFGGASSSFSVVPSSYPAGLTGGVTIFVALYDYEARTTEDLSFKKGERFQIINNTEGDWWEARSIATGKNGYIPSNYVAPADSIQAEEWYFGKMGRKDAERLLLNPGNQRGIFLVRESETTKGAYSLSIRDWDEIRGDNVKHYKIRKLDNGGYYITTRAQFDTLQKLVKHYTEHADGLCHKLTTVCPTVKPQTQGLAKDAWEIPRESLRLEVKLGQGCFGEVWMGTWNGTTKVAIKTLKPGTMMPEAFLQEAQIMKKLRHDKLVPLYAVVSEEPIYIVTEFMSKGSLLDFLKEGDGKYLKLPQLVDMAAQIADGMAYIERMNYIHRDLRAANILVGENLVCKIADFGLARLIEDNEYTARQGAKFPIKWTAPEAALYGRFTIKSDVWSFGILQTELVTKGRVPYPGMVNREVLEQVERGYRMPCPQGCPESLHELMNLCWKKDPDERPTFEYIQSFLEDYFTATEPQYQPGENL
T3 sequence (P12931 2-536): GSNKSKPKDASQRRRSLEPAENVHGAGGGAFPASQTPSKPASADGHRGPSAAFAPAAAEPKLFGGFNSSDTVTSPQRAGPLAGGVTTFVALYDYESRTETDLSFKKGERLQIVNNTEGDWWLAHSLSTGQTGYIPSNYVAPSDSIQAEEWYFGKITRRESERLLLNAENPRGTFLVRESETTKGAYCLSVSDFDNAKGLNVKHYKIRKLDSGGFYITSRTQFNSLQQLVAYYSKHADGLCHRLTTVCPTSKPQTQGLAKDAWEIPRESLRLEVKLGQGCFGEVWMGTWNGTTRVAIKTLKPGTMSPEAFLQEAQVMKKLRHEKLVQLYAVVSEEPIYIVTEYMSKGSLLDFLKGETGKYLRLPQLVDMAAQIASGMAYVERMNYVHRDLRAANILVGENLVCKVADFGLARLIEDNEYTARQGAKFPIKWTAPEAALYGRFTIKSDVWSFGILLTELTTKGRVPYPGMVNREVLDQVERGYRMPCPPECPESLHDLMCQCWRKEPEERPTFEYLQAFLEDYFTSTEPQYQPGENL

IC50 (ABL1): 153 nM
SMILES: Cc1nc(Nc2ncc(C(=O)Nc3c(C)cccc3Cl)s2)cc(N2CCN(CCNC(=O)CCC(=O)NCCOCCOCCCCCCCl)CC2)n1 [dasatinib−HT ligand]
live-cell confocal co-localization (HaloTag recruitment to endosome/F-actin) in (FGR): the GFP-fusion kinase co-localized with the intracellular compartments
Western blot of pY416 autophosphorylation of EGFP-SRC in HeLa cells; live-cell c (SRC): the levels of active, phosphorylated SRC significantly decreased compared with those in vehicle-treated HeLa cells
live-cell confocal co-localization (HaloTag recruitment to endosome/F-actin) in (HCK): the GFP-fusion kinase co-localized with the intracellular compartments
live-cell confocal co-localization (HaloTag recruitment to endosome/F-actin) in (LYN): the GFP-fusion kinase co-localized with the intracellular compartments
live-cell confocal co-localization (HaloTag recruitment to endosome/F-actin) in (YES1): the GFP-fusion kinase co-localized with the intracellular compartments
live-cell confocal co-localization (HaloTag recruitment to endosome/F-actin) in (BTK): the GFP-fusion kinase co-localized with the intracellular compartments
live-cell confocal co-localization (HaloTag recruitment to endosome/F-actin) in (CSK): clearly showed binding events between dasatinib and its target kinases (ABL1, SRC, CSK, etc.) at specific subcellular structures
